Data taken from the NIST ThermoML archive (doi:10.1016/j.tca.2014.11.028).
± gives the expanded uncertainty stated by the source.

Legend:
[1] = 101 kPa, Liquid, Vibrating tube method
[2] = xn = mol fraction of the nth substance listed; conditions: 101 kPa, Liquid, Vibrating tube method

Work on O [water] yielded a mass density ([1]; 283.15 K) of 999.7 ± 1 kg/m3, a mass density ([1]; 323.15 K) of 988 ± 1 kg/m3 and a mass density ([1]; 333.15 K) of 983.2 ± 1 kg/m3. It also gave a mass density ([1]; 343.15 K) of 977.8 ± 1 kg/m3, a mass density ([1]; 353.15 K) of 971.7 ± 1 kg/m3 and a mass density ([1]; 363.15 K) of 965 ± 1 kg/m3.

For O=C(O)CC(=O)O [propanedioic acid] + C[N+](C)(C)CCO.[Cl-], the mass density ([2]; 283.15 K, x2 = 0.3333) was 1191.5 ± 1.1 kg/m3, the mass density ([2]; 293.15 K, x2 = 0.3333) was 1185.1 ± 1.1 kg/m3 and the mass density ([2]; 303.15 K, x2 = 0.3333) was 1178.6 ± 1.1 kg/m3. For the same molecule, the mass density ([2]; 313.15 K, x2 = 0.3333) was 1172.3 ± 1.1 kg/m3, the mass density ([2]; 323.15 K, x2 = 0.3333) was 1166 ± 1.1 kg/m3 and the mass density ([2]; 333.15 K, x2 = 0.3333) was 1160.3 ± 1.1 kg/m3. The mass density ([2]; 343.15 K, x2 = 0.3333) was 1154 ± 1.1 kg/m3, the mass density ([2]; 353.15 K, x2 = 0.3333) was 1146.6 ± 1.1 kg/m3 and the mass density ([2]; 363.15 K, x2 = 0.3333) was 1138.8 ± 1.1 kg/m3.

C[N+](C)(C)CCO.[Cl-] [choline chloride] + OCCO gave a mass density ([2]; 283.15 K, x1 = 0.3333) of 1122.9 ± 1.1 kg/m3, a mass density ([2]; 293.15 K, x1 = 0.3333) of 1117.1 ± 1.1 kg/m3 and a mass density ([2]; 303.15 K, x1 = 0.3333) of 1111.4 ± 1.1 kg/m3. The mass density ([2]; 313.15 K, x1 = 0.3333) was 1105.7 ± 1.1 kg/m3, the mass density ([2]; 323.15 K, x1 = 0.3333) was 1100.1 ± 1.1 kg/m3 and the mass density ([2]; 333.15 K, x1 = 0.3333) was 1094.7 ± 1.1 kg/m3. The mass density ([2]; 343.15 K, x1 = 0.3333) was 1088.7 ± 1.1 kg/m3, the mass density ([2]; 353.15 K, x1 = 0.3333) was 1081.9 ± 1.1 kg/m3 and the mass density ([2]; 363.15 K, x1 = 0.3333) was 1074.4 ± 1.1 kg/m3.
